The text below walks through data of patent US20230158177A1, “HYPOXIA-TARGETING CONTRAST AGENT AND METHODS OF USE THEREOF” (Arizona Board of Regents on behalf of Arizona State …, priority 2021, published 2023).

Values joined by “and” are separate entries in the source; they are usually repeats but may differ in a detail not shown here. Equal values may be shown once.

The conditions of series [1]: mouse; cited from earlier work.
The conditions of series [2]: cited from earlier work.
A further series deals with NIH-3T3 fibroblast cells. The series can be described thus: Cytotoxicity: cell viability assay using Alamar blue. The format is cell-based. The following applies: for cell viability (Alamar blue): hypoxic and normoxic conditions. How it is done: To study the cytotoxicity of DFOB, NIH-3T3 fibroblast cells were used. The cells were exposed to different concentrations of DFOB for 4, 8, and 24 h under either hypoxic or normoxic conditions. Afterwards, the cells were washed with PBS and exposed to 10% Alamar blue in media for 4 h in their respective conditions. To assess the viability of the cells 100 µl of the exposed Alamar blue was collected in a 96-well plate using the spectrophotometer the absorbance was measured at 570 nm and 600 nm excitations and the viability of the cells was calculated.
Cytotoxicity assay for FOBNI was a viability test using Alamar blue. The results are summarized in FIG. 5 for normoxic conditions and FIG. 6 for hypoxic conditions. […] The increased viability, which is a translation of reduced Alamar blue in control samples of 8 h and 24 h can be attributed to the increased number of the cells in the control wells. After seeding the cells the cell number in the control wells could increase and that can influence the amount of reduced compound in absorbance test.
(In general: Alamar Blue is a resazurin reagent that responds to reducing activity.)

Series [3] in a line: Relaxometry: relaxivity in a water phantom at 7T. The format is physicochemical. The following applies: for longitudinal relaxivity r1 / transverse relaxivity r2: in water; for longitudinal relaxivity r1: slope of linear fit of R1 vs [C]; for transverse relaxivity r2: slope of linear fit of R2 vs [C]. How it is done:
The basic paramagnetic properties i.e., relaxivity of chelated DFOB (FOB) and FOBNI was measured at 7T using a preclinical Bruker MRI scanner. The relaxivity of the two molecules were studied using a home-made 3D printed phantom capable of controlling temperature. The phantoms contained nine different concentrations of each contrast agents in water from 0-4 mM for FOB and 0-10 mM for FOBNI. The imaging parameters for this study were as matrix size 64×64, the field of view 2.56 cm×2.56 cm and TR=205-5000 ms, […] for the T1 map and TR=5000 ms, TE=8-200 ms for the T2 map. The MR images were later analyzed in a homemade MATLAB code to calculate the T1 and T2 values for each pixel. Using the T1 and T2 values for each concentration and Ri=[C]ri+Ri^0 equation the relaxivity values were calculated by a linear fit on Ri and [C]. Where Ri (i=1 or 2) is the relaxation rate of the tissue, [C] is the concentration of the contrast agent, ri is the relaxivity of the contrast agent and the Ri^0 is the intrinsic relaxation rate of the water. FIG. 7A and FIG. 7B show the T1 and T2 maps for the phantom and a concentration map indicating the concentrations of FOB and FOBNI in each respective well.
FIG. 8 represents the result of the linear fit for R1 and R2 for the two contrast agents. […] Using the linear fit function, the following equations are acquired for relaxation rate vs concentration, R1=(2.06±0.06)[C]+(0.49±0.04) (in red) and R2=(2.75±0.06)[C]+(3.75±0.08) (in gray) for FOB and R1=(0.51±0.1)[C]+(0.44±0.03) (in red) and R2=(4.51±0.14)[C]+(3.87±0.19) (in gray) for FOBNI.

The test system of a further series is 3T3 fibroblast cells. Nature of the series: In vitro hypoxia-targeting study: T1 and T2 MRI of cell pellets. The format is cell-based. The following applies: for Relaxation time T1 of exposed cell pellets / Relaxation time T2 of exposed cell pellets: 7 T; for contrast agent concentration in cell pellet: from the relaxivity equation for transverse relaxation rate. How it is done:
The in vitro study for hypoxia-targeting efficiency of FOBNI was assessed in a hypoxia chamber glove box capable of adjusting oxygen concentration, temperature and CO2 and equipped with a small centrifuge unit. The 3T3 fibroblast cells were grown in a T-150 flask once they reached the confluency of 80% divided equally to five T-75 flasks to ensure the flasks were identical before being exposed to contrast agents and different conditions. The cells were supplied with Dulbecco's Modified Eagle Medium (DMEM), fetal bovine serum (10%), and penicillin/streptomycin (1%). Once the five flasks reached the confluency of 75-80% the growth media were replaced with the following mediums.
Two flasks were supplied with fresh culture media supplemented with DFOB, two with fresh media and FOBNI and one with just fresh media as control. The control and one FOB and one FOBNI labeled flasks were placed in a regular cell incubator at 21% O2, 5% CO2 and 37° C. and the remaining two flasks were transferred to the hypoxia chamber at 1% O2, 5% CO2 and 37° C. All the samples were kept at defined conditions for 4 h before removing the media. The cells were washed three times with phosphate buffered saline (PBS) at the end of four hour incubation and were detached by being exposed to trypsin for 5 min. The collected cell mixtures in Eppendorf Tube were centrifuged at 1000 rpm for 5 min and the medium was removed. Afterwards, the cell pellets were suspended in PBS and again centrifuged three times to ensure the removal of unbound or free DFOB or FOBNI. Finally, to keep the cell pellets intact the tubes were filled with low temperature liquid agar and placed in the fridge to solidify.
MR Imaging—The samples were imaged using a rat brain surface coil at 7 T. The voxel wise T1 and T2 maps of the samples were calculated using MATLAB based software and the images from Variable Repetition Time Fast Spin Echo (VTR) Sequence and multi-echo spin echo sequence, respectively. The VTR sequence was performed with TE=8 ms and thirteen TR values ranging between (205-5000 ms). The images in multi-echo sequence were acquired with TE ranging between 8-200 ms and TR=5000 ms. The field of view was 2.56 cm×2.56 cm and the matrix size of 64×64 for all the experiments. The ROI analysis to calculate the T1 and T2 values for cell pellets were performed in MATLAB.
Statistics—All results are reported as means±standard deviations (SD). For statistical comparisons unpaired t-test was employed and confidence intervals α=0.05, 95% was used between specific means.

Setting [4] is: hypoxic (H), 1% O2, 4 h exposure.
The mark [5] stands for this setting: normoxic (N), 21% O2, 4 h exposure.

With `CC(=O)N(O)CCCCCNC(=O)CCC(=O)N(O)CCCCCNC(=O)CCC(=O)N(O)CCCCCN` [DFOB, Deferoxamine B], the circulation half-time entry in series [1] was “about 5 min”. Further, the cell permeability result in series [2] is “very low cell permeability”.

In the case of “Feroxamine B conjugate of 2-nitroimidazole [FOBNI]”, the “cell viability (Alamar blue)” value with NIH-3T3 fibroblast cells (100-400 μM, up to 24 h exposure, control of the 4 h exposure used, n=3) is on record as “no significant reduction”. Also, the “cell viability (Alamar blue)” value in the series on NIH-3T3 fibroblast cells (after 8 h and 24 h of exposure, control of each time point used) is recorded as “significant drop in cell viability”. In addition, in the series on NIH-3T3 fibroblast cells (up to 8 h of direct exposure to the cells), the “cytocompatibility (cell viability assay)” value was “cytocompatibility”. Besides, in series [3], the “decrease in r1 value compared to FOB” value is reported as “about 75%”; the “longitudinal relaxivity r1” value was 0.51 L/s/mmol and 0.51 ± 0.1 L/s/mmol; the “transverse relaxivity r2” value was determined as 4.51±0.14. In addition, in the series with 3T3 fibroblast cells (setting [4]), the “Relaxation time T1 of exposed cell pellets” value (from here on “Relaxation time T1”) amounted to 1909 ± 162 ms and the “Relaxation time T2 of exposed cell pellets” value (from here on “Relaxation time T2”) came out at 32.4 ± 3.4 ms. Moreover, in the series on 3T3 fibroblast cells (hypoxic condition), the “increase in pellet concentration, FOBNI vs FOB” value is listed as 1.73 fold. Further, in the series with 3T3 fibroblast cells (hypoxic), the “contrast agent concentration in cell pellet” value (from here on “contrast agent concentration”) was 5.98 mM. Also, in the series on 3T3 fibroblast cells (setting [5]), the “Relaxation time T1” value worked out at 1793 ± 165 ms and the “Relaxation time T2” value came out at 59.3 ± 9.3 ms. For the same molecule, the “contrast agent concentration” value with 3T3 fibroblast cells (normoxic) came to 2.88 mM. Further, in the series on 3T3 fibroblast cells (vs FOB, seen in T2 values under normoxic conditions), the “cellular uptake after addition of nitroimidazole moiety” value is given as “increased the cellular uptake”.

`CC(=O)N([O-])CCCCCNC(=O)CCC(=O)N([O-])CCCCCNC(=O)CCC(=O)N([O-])CCCCCN.[Fe+3]` [FOB, Feroxamine B, reference compound]: in series [3], the “longitudinal relaxivity r1” value was 2.06 ± 0.06 L/s/mmol and the “transverse relaxivity r2” value is recorded as 2.75±0.06. Further, in the series on 3T3 fibroblast cells (setting [4]), the “Relaxation time T1” value worked out at 2002 ± 143 ms and the “Relaxation time T2” value was found to be 75.5 ± 15.0 ms. The “contrast agent concentration” value in the series on 3T3 fibroblast cells (hypoxic) stood at 3.45 mM. Further, in the series with 3T3 fibroblast cells (setting [5]), the “Relaxation time T1” value came to 2280 ± 222 ms; the “Relaxation time T2” value was 89.9 ± 11.21 ms and 89.9 ± 11.2 ms. Besides, the “contrast agent concentration” value in the series with 3T3 fibroblast cells (normoxic) came to 2.67 mM.
